# Experimental data from patent US6641783B1, “Chromatographic systems with pre-detector eluent switching” (priority 1999, dated 2003).
# Tests used:
# [1] = Capacity factor of the test solute on an immobilized artificial membrane HPLC column; assay type: physicochemical; conditions: EsterIAM.PC C10/C3 column, 15% acetonitrile in PBS, 1 mL/min
# Description: (§1) The chromatographic process represents a reversible equilibrium of solutes between the mobile phases and the stationary phases. The magnitude of solute retention is a direct result from this equilibrium and is typically expressed by a parameter, the capacity factor, k′=(tr−to)/to where to is the dead time and tr is the retention time of the solutes. The capacity factor is therefore a stoichiometric mass distribution equilibrium of solutes between the mobile phases and the stationary phases, and its determination allows the calculation of various physicochemical values according to pre-determined algorithms.
# (§2) Unless otherwise indicated, the experimental data reported in this section was collected under the following conditions: UV detection at 280 nm, UV flow cell: 14 μL, mobile phase: 15% acetonitrile in PBS buffer at 1 mL/min., injection volume: 10 μL (sample amount: 2 μg), eluent switch rate: 1 Hz/column, and one pump per column (one binary pump used at two different pumps).
# (§3) Retention time data is reported as capacity factors k′=(tr−to)/to. The most critical preliminary data to obtain, however, was to experimentally determine the minimum peak washing times (volumes) needed to obtain good chromatographic peak characterization with the hardware designed and assembled as shown in FIG. 7. […]
# [2] = Capacity factor of the test solute on a C8 HPLC column; assay type: physicochemical; conditions: 15% acetonitrile in PBS, 1 mL/min
# Description: as §1, §2, §3
# [3] = Eluent Switch (parallel chromatography), 1 Hz/column
# [4] = No Switch (single column chromatography)
compound,measurement,setting,value
COc1ccc(C)cc1 [4-methylanisole],k′ (Capacity factor),[1]; [3],7.13
same,k′ (Capacity factor),[1]; [4],7.48
same,k′ (Capacity factor),[2]; [3],23.71
same,k′ (Capacity factor),[2]; [4],23.04
